From PubChem BioAssay AID743296 (The Scripps Research Institute Molecular Screening Center, 2014)
Activity calls are given as the source filed them. How the calls were made is not given here.

biological target: CCHFV viral ovarian tumor domain protease (vOTU, L protein); assay: CCHFV vOTU protease inhibitor potency, dose response, biochemical, fluorescence, Pep-AMC substrate (AID 743296); conditions: recombinant CCHFV vOTU

| Structure (SMILES) | IC50 |
| --- | --- |
| Cn1nc(-c2ccccn2)nc2c(=O)n(C)c(=O)nc1-2 | 0.251 µM |
| S=C(Nc1ccc(Cl)cc1)Nc1cccc2cnccc12 | inactive |
| NS(=O)(=O)c1ccc(NC(=O)COC(=O)c2ccc([N+](=O)[O-])s2)cc1 | 8.1 µM |
| COC(CNC(=O)c1ccc2c3c(onc13)-c1ccccc1C2=O)OC | 7.11 µM |
| O=C1C=C(Nc2ccccc2)c2ccccc2C1=O | 6.64 µM |
| O=C(COC(=O)c1ccc([N+](=O)[O-])s1)Nc1ccccc1 | 8.21 µM |
| COc1cc2c(cc1O)[C@@H]1Cc3ccc(OC)c(O)c3CN1CC2 | inactive |
| O=C(O)CSc1cc(NS(=O)(=O)c2ccc(Br)cc2)c2ccccc2c1O | 1.66 µM |
| O=C(NC1=C(NC2CCS(=O)(=O)C2)C(=O)c2ccccc2C1=O)c1ccccc1 (configuration not stated) | 2.79 µM |
| CCOC(=O)N=Nc1c2ccccc2c2nc3no[nH]c3nc12 | 2.54 µM |
| Cc1ccccc1-c1cc2c(nn1)-c1ccccc1C2=O | 0.545 µM |
| CC1CCCC(NC(=O)COC(=O)c2ccc([N+](=O)[O-])s2)C1C (configuration not stated) | 9.29 µM |
| CCOC(=O)C1=C(COC(=O)c2ccc([N+](=O)[O-])s2)NC(=O)NC1C (configuration not stated) | 7.97 µM |
| O=C(c1ccco1)[C@@H]1[C@@H]2C(=O)N(c3ccc(Br)cc3)C(=O)[C@@H]2C2c3ccccc3C=CN21 (some centres not stated) | 5.18 µM |
| CCC(CNc1cc(OC)cc2cccnc12)NC1CCCCC1 (configuration not stated) | 5.86 µM |
| Cc1ccc(NC2=CC(=O)C(=O)c3ccccc32)cc1 | 5.14 µM |
| O=S(=O)(Nc1cc2nc3ccccc3nc2n1Cc1ccccc1)c1ccc(Cl)cc1 | 4.14 µM |
| O=C(O)CSc1cc(NS(=O)(=O)c2cccc([N+](=O)[O-])c2)c2ccccc2c1O | 1.95 µM |
| COC1=C(N)C(=O)c2nc(C)ccc2C1=O | 0.824 µM |
| COc1cc(NCCCCCCN)c2ncccc2c1OC | inactive |
| O=C(COC(=O)c1ccc([N+](=O)[O-])s1)Nc1ncc(C(F)(F)F)cc1Cl | inactive |
| Cc1cnc(C2OCCO2)c2cccc(N)c12 | inactive |
| COc1cc(Br)c(C(=O)c2nccc3cc(OC)c(OC)cc23)cc1OC | 0.276 µM |
| O=C1Cc2ccccc2C(=O)N1 | 0.419 µM |
| Cc1ccc2c(c1C)-c1c(ccc(C)c1C)C(=O)C2=O | 7.46 µM |
| O=C1Cc2ccccc2C(=O)N1CCc1ccccc1 | 0.901 µM |

| Structure (SMILES) | IC50 |
| --- | --- |
| O=C(COC(=O)c1ccc([N+](=O)[O-])s1)Nc1ccc(F)cc1 | 7.27 µM |
| Cc1ccc(N2C(=O)[C@@H]3[C@H](C2=O)C2c4ccccc4C=CN2[C@@H]3C(=O)c2ccco2)cc1 (some centres not stated) | 6.53 µM |
| COc1cc(NC(=O)COC(=O)c2ccc([N+](=O)[O-])s2)cc(OC)c1OC | 8.38 µM |
| CC(C)=CCC1=C(OCC(=O)O)C(=O)c2ccccc2C1=O | 3.23 µM |
| COc1ccc2noc3c2c1C(=O)c1ccccc1-3 | 8.11 µM |
| Nc1cc2c(cc1Br)[nH]c(=O)c1ccccc12 | inactive |
| CC1(C)C=C2C(=NN(c3ccccc3)C(N)=C2C#N)CO1 | 1.54 µM |
| CCOC(=O)c1c2c(n(Cc3ccccc3)c1C)C(=O)C(=O)c1ccccc1-2 | 2.12 µM |
| O=C(/C=C/c1ccc(O)cc1)c1ccc(NC2=C(N3CCCCC3)C(=O)c3ccccc3C2=O)cc1 | 4.19 µM |
| O=C(O)CSc1cc(NS(=O)(=O)c2ccc(Cl)cc2)c2ccccc2c1O | 3.4 µM |
| CC1COCC(C)N1C1=C(Cl)C(=O)c2ccccc2C1=O (configuration not stated) | 7.43 µM |
| NC1=C(Cl)C(=O)c2ccc(S(N)(=O)=O)cc2C1=O | 0.122 µM |
| O=C1Cc2ccccc2C(=O)N1Cc1ccccc1 | 1.19 µM |
| O=C1OC(Nc2cc(Br)cc3cccnc23)c2ccccc21 (configuration not stated) | > 115 µM (inactive) |
| COc1cc(C(=O)c2nccc3cc(OC)c(OC)cc23)c([N+](=O)[O-])cc1OC | 1.42 µM |
| CC(=O)c1ccc(NC(=S)Nc2cccc3cnccc23)cc1 | > 115 µM (inactive) |
| CN(C1=C(NC(=O)c2ccccc2)C(=O)c2ccccc2C1=O)C1CCS(=O)(=O)C1 (configuration not stated) | 2.67 µM |
| O=C(COC(=O)c1ccc([N+](=O)[O-])s1)NCc1ccc(F)cc1 | 9.46 µM |
| O=S(=O)(Nc1cc(Sc2ncn[nH]2)c(O)c2ccccc12)c1ccccc1 | 0.458 µM |
| CCc1cc[n+](C2=C(NS(=O)(=O)c3cccs3)C(=O)c3ccccc3C2=O)cc1 | 3.5 µM |
| Cc1c(Cl)cnc(NC(=O)COC(=O)c2ccc([N+](=O)[O-])s2)c1Cl | inactive |
| O=C(NC1=CC(=O)c2ccccc2C1=O)c1ccccc1 | 4.64 µM |
| COc1ccccc1NC(=O)COC(=O)c1ccc([N+](=O)[O-])s1 | 7.82 µM |
| O=C(OCc1nnc(-c2ccccc2)o1)c1ccc([N+](=O)[O-])s1 | 6.91 µM |
| NS(=O)(=O)c1ccc(NC2=CC(=O)C(=O)c3ccccc32)cc1 | 4.22 µM |
| COc1cc(NCCCC(C)N)c2ncccc2c1 (configuration not stated) | > 115 µM (inactive) |
